Data on one substance can be found in patent US9551711B2, “Compositions and methods for detecting nitration of PKG-1α and methods of use thereof” (Augusta University Research Institute, Inc., priority 2013, dated 2017).

One may read the Km as the substrate concentration at which the rate is half of its maximum.

Experiment [1] has as its system pulmonary artery smooth muscle cells (PASMC). The experiment in a line: PASMC cell growth (cell count). The experiment is classed as cell-based, lamb. The note with it: WT-PKG-1α transfected PASMC; SIN-1 500 μM, 48 h. On the procedure:
Pulmonary artery smooth muscle cells (PASMC) were grown on a 10 cm dish to 75% confluence, transfected with WT-PKG-1α or Y247F-PKG-1α cDNA using a Qiagen transfection kit, according to manufacturer's instructions, and incubated at 37° C. for 20 h. […] The cells were then trypsinized, seeded onto a 6-well plate at a density of 2.5×10^4 cells per well, and grown for an additional 4 h in serum-free DMEM growth medium containing 1% FBS and antibiotics. The cells were then treated with or without SIN-1 (500 μM) and allowed to grow at 37° C. in the incubator for an additional 48 h. The cellular proliferation was evaluated by counting the cells with a hemacytometer (Cascade Biologicals™, Portland, Oreg.) after the trypsinization of the PASMC monolayers.
Primary cultures of pulmonary artery smooth muscle cells (PASMC) from 4-week old lambs were isolated by the explant technique, as previously described (Wedgwood, S., et al., Circulation Research 89, 357-364 (2001)). Briefly, a segment of the main pulmonary artery from a 4-week old lamb was excised and placed in a sterile 10 cm dish containing DMEM supplemented with 1 gm/1 glucose. The segment was stripped of adventitia with a sterile forceps. The main pulmonary artery segment was then cut longitudinally to open the vessel, and the endothelial layer was removed by gentle rubbing with a cell scraper. […]

Experiment [2] deals with 3-NT-Y247-PKG-1α. As to the kind of experiment: 3-NT-Y247-PKG-1α immunoblot in transfected PASMC. Particulars: SIN-1 500 μM, 30 min. It is filed as cell-based, lamb. A general note: Immunoblotting shows a protein as a band on a membrane.
In experiment [3] the target is T1, PKG-1α (Homo sapiens, UniProt Q13976).
T1 sequence (Q13976 2-671): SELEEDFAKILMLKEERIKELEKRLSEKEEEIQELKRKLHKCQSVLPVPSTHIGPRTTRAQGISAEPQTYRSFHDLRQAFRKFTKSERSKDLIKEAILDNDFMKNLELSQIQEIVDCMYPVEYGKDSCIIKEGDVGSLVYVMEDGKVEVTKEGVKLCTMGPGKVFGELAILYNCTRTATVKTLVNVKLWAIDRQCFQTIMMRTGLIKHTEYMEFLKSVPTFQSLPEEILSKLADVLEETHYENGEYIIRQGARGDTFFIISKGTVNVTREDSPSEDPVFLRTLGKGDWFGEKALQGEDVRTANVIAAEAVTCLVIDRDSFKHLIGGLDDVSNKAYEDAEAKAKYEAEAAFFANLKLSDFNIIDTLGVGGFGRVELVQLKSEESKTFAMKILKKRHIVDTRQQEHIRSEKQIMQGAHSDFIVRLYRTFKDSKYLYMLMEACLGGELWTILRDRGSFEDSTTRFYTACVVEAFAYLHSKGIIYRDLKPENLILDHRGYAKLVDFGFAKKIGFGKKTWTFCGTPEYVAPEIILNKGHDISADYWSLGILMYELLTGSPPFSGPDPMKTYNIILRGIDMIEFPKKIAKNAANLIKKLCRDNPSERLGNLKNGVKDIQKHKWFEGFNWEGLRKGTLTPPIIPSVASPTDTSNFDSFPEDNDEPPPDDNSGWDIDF
As to the kind of experiment: PKG catalytic activity, Michaelis-Menten kinetics for cGMP. It is filed as biochemical. Further details: an expression plasmid containing a full length WT-PKG-1α cDNA; made in house; host or cells: HEK-293T; the results paragraph b304 says PASMC. On the procedure: Total PKG activity was determined using a non-radioactive immunoassay in cell lysates, according to the manufacturer's directions. Briefly, protein samples were diluted in kinase reaction buffer containing Mg^2+ and ATP (125 μM) in the presence or absence of 8-Br cGMP (10 μM) and incubated in a 96 well plate pre-coated with a PKG substrate containing threonine residues phosphorylated by PKG.
After incubation for 30 min at 30° C. to allow the phosphorylation of the bound substrate, an HRP conjugated anti-phosphothreonine specific antibody was added to convert a chromogenic substrate to a colorimetric substrate that was subsequently read spectrophotometrically at 450 nm. The change in absorbance reflected the relative activity of PKG in the sample. The results were reported as pmols of phosphate incorporated into the GST-G substrate fusion protein by active PKG in the sample in the presence or absence of cGMP (10 μM) per minute at 30° C. per μg of protein (pmol/min/μg). […] The kinetic constants were determined using nonlinear regression (curve fit) analysis (GraphPad Prism Software Inc.).
To determine the Michaelis-Menten constant (Km) for cGMP, the kinase assay was performed, as mentioned above; however, the cGMP concentration was titrated from 0-10 μM, while the ATP concentration remained constant at 125 μM.

As for “3-morpholinosydnonimine N-ethylcarbamide [SIN-1]”, the proliferation result in experiment [1] is “stimulated”. In addition, the “PKG-1α nitration (3-NT-Y247-PKG-1α levels)” value in experiment [2] (PASMC transfected with WT-PKG-1α) is on record as “significantly increased”. For the same substance, the “nitration levels of 3-NT-Y247-PKG-1α” value in experiment [2] (PASMC, second construct of FIG. 4A) is listed as “no significant increases”. For the same substance, the “Vmax of the reaction” value in experiment [3] (WT PKG-1α after SIN-1 challenge, ATP 125 μM, cGMP 0-10 μM) was found to be 0.28 pmol/min/µg. For the same substance, in experiment [3] (WT-PKG-1α upon SIN-1 treatment, read-out: Michaelis-Menten constant (Km) for cGMP), the Km amounted to 8.91 nM.
